Source: ChEMBL document CHEMBL3045927, “Synthesis of 4-methyl-1,2,3-thiadiazole derivatives via Ugi reaction and their biological activities” (2010)

Columns and labels:
Assay type in all cases: functional
Alternaria solani = experiment: Fungicidal activity against Alternaria solani at 50 ug/ml by growth inhibition method; design: scale not given: the % may be the effect or the level left
Pyricularia grisea = experiment: Fungicidal activity against Magnaporthe grisea at 50 ug/ml by growth inhibition method; design: scale not given: the % may be the effect or the level left
Thanatephorus cucumeris = experiment: Fungicidal activity against Thanatephorus cucumeris at 50 ug/ml by growth inhibition method; design: scale not given: the % may be the effect or the level left
Fusarium oxysporum = experiment: Fungicidal activity against Fusarium oxysporum at 50 ug/ml by growth inhibition method; design: scale not given: the % may be the effect or the level left
Rhizoctonia solani = experiment: Fungicidal activity against Rhizoctonia solani at 50 ug/ml by growth inhibition method; design: scale not given: the % may be the effect or the level left
Colletotrichum lagenaria = experiment: Fungicidal activity against Colletotrichum lagenaria at 50 ug/ml by growth inhibition method; design: scale not given: the % may be the effect or the level left
Phytophthora infestans = experiment: Fungicidal activity against Phytophthora infestans at 50 ug/ml by growth inhibition method; design: scale not given: the % may be the effect or the level left
Cercospora beticola = experiment: Fungicidal activity against Cercospora beticola at 50 ug/ml by growth inhibition method; design: scale not given: the % may be the effect or the level left
Tobacco mosaic virus [1] = experiment: In vitro antiviral activity against Tobacco mosaic virus (TMV) infected tobacco leaves at 100 ug/ml
Tobacco mosaic virus [2] = experiment: In vitro antiviral activity against Tobacco mosaic virus (TMV) infected tobacco leaves at 500 ug/ml
Mycosphaerella arachidis = experiment: Fungicidal activity against Mycosphaerella arachidis at 50 ug/ml by growth inhibition method; design: scale not given: the % may be the effect or the level left
[3] = system: Botryosphaeria berengeriana; experiment: Fungicidal activity against Botryosphaeria berengeriana at 50 ug/ml by growth inhibition method; design: scale not given: the % may be the effect or the level left
Tobacco mosaic virus [4] = experiment: In vivo antiviral activity against Tobacco mosaic virus (TMV) infected tobacco leaves assessed as curative effect at 500 ug/ml treated after viral inoculation measured at 2-3 days after viral challenge
Tobacco mosaic virus [5] = experiment: In vivo antiviral activity against Tobacco mosaic virus (TMV) infected tobacco leaves assessed as inactivation effect at 100 ug/ml co-treated with virus for 30 min before inoculation onto leaves measured at 2-3 days after viral challenge
Tobacco mosaic virus [6] = experiment: In vivo antiviral activity against Tobacco mosaic virus (TMV) infected tobacco leaves assessed as curative effect at 100 ug/ml treated after viral inoculation measured at 2-3 days after viral challenge
Tobacco mosaic virus [7] = experiment: In vivo antiviral activity against Tobacco mosaic virus (TMV) infected tobacco leaves assessed as inactivation effect at 500 ug/ml co-treated with virus for 30 min before inoculation onto leaves measured at 2-3 days after viral challenge
Tobacco mosaic virus [8] = experiment: In vivo antiviral activity against Tobacco mosaic virus (TMV) infected tobacco leaves assessed as protective effect at 100 ug/ml treated 12 hr before viral inoculation measured at 2-3 days after viral challenge
Nicotiana tabacum [9] = experiment: Induction of systemic acquired resistance activity in TMV infected-Nicotiana tabacum (tobacco) leaves at 100 ug/ml
Nicotiana tabacum [10] = experiment: Induction of systemic acquired resistance activity in TMV infected-Nicotiana tabacum (tobacco) leaves at 50 ug/ml
Tobacco mosaic virus [11] = experiment: In vivo antiviral activity against Tobacco mosaic virus (TMV) infected tobacco leaves assessed as protective effect at 500 ug/ml treated 12 hr before viral inoculation measured at 2-3 days after viral challenge

Row | Compound | Activity (Alternaria solani) | Activity (Pyricularia grisea) | Activity (Thanatephorus cucumeris) | Activity (Fusarium oxysporum) | Activity (Rhizoctonia solani) | Activity (Colletotrichum lagenaria) | Activity (Phytophthora infestans) | Activity (Cercospora beticola) | inhibition at 100 µg/mL (Tobacco mosaic virus [1]) | inhibition at 500 µg/mL (Tobacco mosaic virus [2]) | Activity (Mycosphaerella arachidis) | Activity [3] | Activity (Tobacco mosaic virus [4]) | Activity (Tobacco mosaic virus [5]) | Activity (Tobacco mosaic virus [6]) | Activity (Tobacco mosaic virus [7]) | Activity (Tobacco mosaic virus [8]) | Activity (Nicotiana tabacum [9]) | Activity (Nicotiana tabacum [10]) | Activity (Tobacco mosaic virus [11])
1 | Cc1ccc(N(C(=O)c2snnc2C)C(C(=O)NC2CCCCC2)c2ccccc2[N+](=O)[O-])cc1Cl (centres undefined) | 35% | 24% | 22% | 22% | 29% | 32% | 0% | 11% | 15% | 47% | 16% | 41% |  |  |  |  |  |  |  | 
2 | Cc1ccc(N(C(=O)c2snnc2C)C(C(=O)NC2CCCCC2)c2cccc(F)c2)cc1Cl (centres undefined) | 21% | 15% | 17% | 21% | 69% | 9% | 21% | 27% | 9% | 18% | 39% | 22% |  |  |  |  |  |  |  | 
3 | Cc1ccc(N(C(=O)c2snnc2C)C(C(=O)NC2CCCCC2)c2ccc(F)cc2)cc1Cl (centres undefined) | 37% | 25% | 12% | 0% | 67% | 5% | 35% | 27% | 15% | 16% | 26% | 26% |  |  |  |  |  |  |  | 
4 | Cc1ccc(N(C(=O)c2snnc2C)C(C(=O)NC2CCCCC2)c2cccc(C(F)(F)F)c2)cc1Cl (centres undefined) | 32% | 24% | 30% | 31% | 20% | 20% | 20% | 22% | 22% | 19% | 21% | 31% |  |  |  |  |  |  |  | 
5 | Cc1ccc(N(C(=O)c2snnc2C)C(C(=O)NC2CCCCC2)c2ccc([N+](=O)[O-])cc2)cc1Cl (centres undefined) | 35% | 18% | 25% | 22% | 29% | 24% | 12% | 11% | 26% | 32% | 16% | 38% |  |  |  |  |  |  |  | 
6 | Cc1cccc(C(C(=O)NC2CCCCC2)N(C(=O)c2snnc2C)c2ccc(C)c(Cl)c2)c1 (centres undefined) | 37% | 10% | 24% | 18% | 63% | 14% | 35% | 27% | 11% | 19% | 17% | 35% |  |  |  |  |  |  |  | 
7 | Cc1ccc(C(C(=O)NC2CCCCC2)N(C(=O)c2snnc2C)c2ccc(C)c(Cl)c2)cc1 (centres undefined) | 42% | 50% | 24% | 18% | 69% | 18% | 26% | 27% | 25% | 40% | 35% | 26% |  |  |  |  |  |  |  | 
8 | Cc1ccc(N(C(=O)c2snnc2C)C(C(=O)NC2CCCCC2)c2cccc(O)c2)cc1Cl (centres undefined) | 56% | 29% | 22% | 34% | 43% | 44% | 24% | 44% | 24% | 35% | 47% | 48% |  |  |  |  |  |  |  | 
9 | Cc1ccc(N(C(=O)c2snnc2C)C(C(=O)NC2CCCCC2)c2ccc(O)cc2)cc1Cl (centres undefined) | 50% | 41% | 37% | 38% | 46% | 8% | 32% | 33% | 14% | 17% | 53% | 31% |  |  |  |  |  |  |  | 
10 | Cc1ccc(N(C(=O)c2snnc2C)C(C(=O)NC2CCCCC2)c2ccccc2)cc1Cl (centres undefined) | 32% | 40% | 17% | 25% | 63% | 9% | 32% | 36% | 19% | 24% | 61% | 22% |  |  |  |  |  |  |  | 
11 | Cc1ccc(N(C(=O)c2snnc2C)C(C(=O)NC2CCCCC2)c2ccccc2Cl)cc1Cl (centres undefined) | 26% | 40% | 12% | 0% | 67% | 5% | 26% | 27% | 19% | 20% | 48% | 13% |  |  |  |  |  |  |  | 
12 | Cc1ccc(N(C(=O)c2snnc2C)C(C(=O)NC2CCCCC2)c2cccc(Cl)c2)cc1Cl (centres undefined) | 21% | 20% | 12% | 11% | 65% | 9% | 21% | 18% | 21% | 29% | 39% | 26% |  |  |  |  |  |  |  | 
13 | NC(=O)c1ncn([C@@H]2O[C@H](CO)[C@@H](O)[C@H]2O)n1 [RIBAVIRIN] |  |  |  |  |  |  |  |  | 28% | 38% |  |  | 46% | 57% | 14% | 71% | 40% | 10% | 40% | 44%
14 | Cc1ccc(NC(=O)c2snnc2C)cc1Cl [TIADINIL] |  |  |  |  |  |  |  |  | 37% | 51% |  |  | 44% | 70% | 12% | 70% | 35% | 49% | 47% | 48%
